{"source": "patent US10385321B2", "about": "“MRP-14 targeting peptides and uses thereof” (priority 2016, dated 2019)", "key": {"MRP-14 [1]": {"target": "T1, MRP-14 (Homo sapiens, UniProt P06702)", "T1 construct": "purchased Novus Biologicals", "T1 sequence (P06702 1-114)": "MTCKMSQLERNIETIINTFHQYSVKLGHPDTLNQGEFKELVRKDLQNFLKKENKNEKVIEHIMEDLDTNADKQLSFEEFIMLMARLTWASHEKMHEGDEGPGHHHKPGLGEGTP", "assay": "SPR binding of peptides to immobilized His-tagged MRP-14", "details": "for SPR binding behaviour (in words): sensorgrams, immobilized MRP-14", "description": "Shortlisted MRP-14 targeting peptides (MTPs) were synthesized with a GGGS spacer and C-terminal amidation (Genscript) and their binding affinities characterized by SPR using Biacore T100 (GE Healthcare). PBST (0.05% Tween 20), pH 7.4 containing […] ethylenediaminetetraacetic acid (EDTA) was used as the running buffer. NTA sensor chips (GE Healthcare) were charged with 0.5 mM NiCl2 solution for 2 minutes at a flowrate of 10 μL/min, then 10 μg/mL His-tagged MRP-14 was bound for 2 minutes at 10 μL/min. For testing affinity to MRP-8/14, untagged MRP-8 (Novus Biologicals) was premixed in a 1:1 ratio with His-tagged MRP-14 for 3 hours in the presence of 0.1 mM CaCl2. Peptides at concentrations ranging from 6.25 μM to 100 μM diluted in running buffer were then injected at 30 μL/min for 1 minute association followed by 1 minute dissociation. Affinity was calculated by fitting a saturation binding curve to the equilibrium response vs. peptide concentration graph.\nTheir binding affinity to MRP-14 was then quantified using surface plasmon resonance (SPR) with an NTA sensor chip. After charging with Ni^2+, His-tagged MRP-14 was immobilized on the chip."}, "MRP-8/14": {"target": "MRP-8/14 (Homo sapiens, UniProt P06702)", "sequence (P05109 whole entry partner, one chain of several)": "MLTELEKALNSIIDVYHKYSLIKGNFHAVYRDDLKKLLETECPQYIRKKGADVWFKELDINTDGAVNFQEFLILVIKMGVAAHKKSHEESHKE", "assay": "biochemical", "method": "Shortlisted MRP-14 targeting peptides (MTPs) were synthesized with a GGGS spacer and C-terminal amidation (Genscript) and their binding affinities characterized by SPR using Biacore T100 (GE Healthcare). PBST (0.05% Tween 20), pH 7.4 containing 50 ethylenediaminetetraacetic acid (EDTA) was used as the running buffer. NTA sensor chips (GE Healthcare) were charged with 0.5 mM NiCl2 solution for 2 minutes at a flowrate of 10 μL/min, then 10 μg/mL His-tagged MRP-14 was bound for 2 minutes at 10 μL/min. […] Peptides at concentrations ranging from 6.25 μM to 100 μM diluted in running buffer were then injected at 30 μL/min for 1 minute association followed by 1 minute dissociation. Affinity was calculated by fitting a saturation binding curve to the equilibrium response vs. peptide concentration graph."}, "[2]": {"system": "platelet thrombi in anticoagulated blood on collagen-coated capillaries", "assay": "Ex vivo shear-induced thrombus formation in perfusion (flow) chamber", "details": "for effect on shear-induced thrombus formation: particles 50 μg/mL, arterial shear rate 600 s^−1, versus PBS only control", "description": "A perfusion chamber (Portola Pharmaceuticals) was used to evaluate the effect of particles on thrombus formation time. Factor Xa inhibitor anticoagulated blood was labeled with […] Rhodamine 6G (Sigma-Aldrich) for 10 minutes. Particles were added at a final concentration of 50 μg/mL and then the blood perfused through human type III collagen-coated rectangular capillaries at an arterial shear rate of 600 s^−. Thrombus formation under flow was then visualized in real time and average fluorescence of platelet aggregation over time quantified.\nParticles were added before perfusion at a concentration of 50 μg/mL, and visualization of thrombus formation was achieved through fluorescence signal from cells labeled with Rhodamine 6G (FIG. 5A). After imaging, average pixel intensity of platelet aggregates over time was quantified (FIG. 5B). […] This is a concern when using nanoparticles to target coagulation factors such as platelets and fibrin due to potential incorporation into the coagulation cascade and further aggregation, as illustrated by the use of such particles for mediating hemostasis."}, "MRP-14 [3]": {"target": "T1, MRP-14", "assay": "Phage ELISA on MRP-14-coated plates", "type": "binding", "details": "BSA as background", "description": "Phage specificity for MRP-14 was verified by performing an ELISA. Polysorp 96-well plates (Nunc) were coated with 50 μL of 50 μg/mL MRP-14 in 0.1 M NaHCO3, pH 8.6 in a humidified chamber overnight at 4° C. The coated wells and additional wells for phage dilutions were blocked with 5 mg/mL BSA in 0.1 M NaHCO3, pH 8.6 for 1 hour at 4° C. After washing 6 times with TBST (0.5% Tween 20), 8 serial fourfold dilutions from 10^12 phages/mL down to 6×10^7 phages/mL were performed in blocked wells then 100 μL of the phages added to MRP-14-coated wells and incubated for 1 hour at room temperature. […] Finally, HRP activity was detected using 100 μL 2,2′-azino-bis(3-ethylbenzothiazoline-6-sulfonic acid) diammonium salt (ABTS) colorimetric substrate solution (Life Technologies) at room temperature for 30 minutes. Absorbance was measured at 410 nm using a Tecan Infinite 200 plate reader\nTo narrow down the peptide library to the ones with highest affinity, an enzyme-linked immunosorbent assay (ELISA) was performed with the isolated phages. […] Bound phage was detected using horseradish peroxidase (HRP)-labeled anti-M13 antibodies followed by addition of 2,2′-azino-bis(3-ethylbenzothiazoline-6-sulfonic acid) diammonium salt (ABTS) substrate (FIG. 1). […]"}, "[4]": {"system": "thrombi in carotid artery", "assay": "Photochemical injury mouse model of thrombosis, Maestro fluorescence imaging of carotid arteries", "type": "in vivo, C57BL/6 mice", "details": "sCy5-labeled particles 200 μg i.v. before injury; n=3; contralateral artery as control", "method": "8-9 week old male C57BL/6 mice were anesthetized by intraperitoneal injection of 62.5 mg/kg sodium pentobarbital. After anesthesia, peptide-targeted and untargeted TMV particles (200 μg/100 μL) were injected intravenously followed by dissection of the mice to expose the right common carotid artery. Rose Bengal dye (10 mg/mL in PBS) was then administered via tail vein injection and a 540 nm green laser light (1.5 mW, Melles Griot) placed 5 cm from the artery was used to stimulate photochemical injury and induce thrombus formation. A Doppler flow probe (Transonic Systems) was placed under the artery and used to monitor blood flow. The mice were sacrificed after vessel occlusion. The artery and the contralateral control were excised and fixed in formalin, then imaged by Maestro fluorescence imaging to determine targeting of the particles (see below).\n(§1) The red fluorescence from sCy5 was imaged using Maestro imager, with 800 ms exposure time for the arteries and 400 ms exposure time for the organs. The signal was filtered with 576 to 621 nm excitation and 635-nm longpass emission filters.\nProgressing to the mouse model, the particles were first injected intravenously, then thrombosis was induced through photochemical injury of the carotid artery, specifically through reactive oxygen species formation from the reaction of green laser light with injected Rose Bengal dye. A flow probe was used to monitor the development of thrombosis, and the arteries along with their contralateral control were excised following occlusion of the vessel."}, "[5]": {"details": "sCy5-labeled particles i.v.; brain, lungs, heart, kidneys, spleen, liver", "method": "8-9 week old male C57BL/6 mice were anesthetized by intraperitoneal injection of 62.5 mg/kg sodium pentobarbital. After anesthesia, peptide-targeted and untargeted TMV particles (200 μg/100 μL) were injected intravenously followed by dissection of the mice to expose the right common carotid artery. […] Additionally, to study the biodistribution of the particles, the brain, heart, lungs, kidneys, spleen, and liver were also excised and imaged with Maestro imager.\nas §1\nBiodistribution was investigated concurrently with the photochemical injury model. The brain, lungs, heart, kidneys, spleen, and liver were collected and particle clearance examined through Maestro imaging (FIG. 6A)."}, "[6]": {"details": "kinetic fitting, 390.625 nM to 12.5 μM of MTP6"}}, "note": "“Also recorded” adds a separate entry of the source. Like-named read-outs stand apart in the source and are kept apart here. Positions of bridges follow the written chain, without caps; N, C: chain ends. Residues, ends and D or L forms follow the SMILES beside them. *: point of attachment. X1 = [N-]=[N+]=NC[C@H](NC(=O)CCC(=O)NCCCOCCOCCOCCCN*)C(=O)O", "data": [{"molecule": "CC(C)[C@@H]1NC(=O)[C@H](CO)NC(=O)[C@H](CC(N)=O)NC(=O)[C@@H](NC(=O)[C@H](C)N)CSSC[C@@H](C(=O)NCC(=O)NCC(=O)NCC(=O)N[C@@H](CO)C(=O)NCCCOCCOCCOCCCNC(=O)CCC(=O)N[C@@H](CN=[N+]=[N-])C(=O)O)NC(=O)[C@H](Cc2c[nH]cn2)NC(=O)[C@H](Cc2c[nH]cn2)NC(=O)[C@H](CCC(N)=O)NC(=O)[C@H](Cc2c[nH]cn2)NC1=O", "note": "[MTP6-N3] (H-ACNSVHQHHCGGGS-X1; disulfide 2-10; N-terminus assumed)", "values": [{"measurement": "Kd", "setting": "MRP-14 [1]; saturation binding curve fit of equilibrium response, peptides 6.25 μM to 100 μM, NTA chip, read-out: Kd (dissociation constant from SPR measurements with MRP-14)", "result": 55.7, "unit": "µM"}]}, {"molecule": "CC(C)[C@@H]1NC(=O)[C@H](CO)NC(=O)[C@H](CC(N)=O)NC(=O)[C@@H](NC(=O)[C@H](C)N)CSSC[C@@H](C(=O)NCC(=O)NCC(=O)NCC(=O)N[C@@H](CO)C(N)=O)NC(=O)[C@H](Cc2c[nH]cn2)NC(=O)[C@H](Cc2c[nH]cn2)NC(=O)[C@H](CCC(N)=O)NC(=O)[C@H](Cc2c[nH]cn2)NC1=O", "note": "[MTP6] (H-ACNSVHQHHCGGGS-NH2; disulfide 2-10 (inferred); N-terminus assumed)", "values": [{"measurement": "Kd", "setting": "MRP-14 [1]", "result": 39.6, "unit": "µM"}, {"measurement": "Kd", "setting": "MRP-8/14", "result": 57.6, "unit": "µM"}, {"measurement": "effect on shear-induced thrombus formation", "setting": "[2]", "result": "does not appear to block involvement of MRP-14 in thrombosis"}]}, {"molecule": "CC(C)C[C@@H]1NC(=O)CNC(=O)[C@H]([C@@H](C)O)NC(=O)[C@@H]2CCCN2C(=O)[C@@H](NC(=O)[C@H](C)N)CSSC[C@@H](C(=O)NCC(=O)NCC(=O)NCC(=O)N[C@@H](CO)C(N)=O)NC(=O)[C@H](C)NC(=O)[C@H](Cc2c[nH]cn2)NC(=O)[C@H](Cc2c[nH]cn2)NC1=O", "note": "[MTP9] (H-ACPTGLHHACGGGS-NH2; disulfide 2-10 (inferred); N-terminus assumed)", "values": [{"measurement": "SPR binding behaviour (in words)", "setting": "MRP-14 [1]", "result": "quick initial interaction followed by a slower binding phase"}]}, {"molecule": "C[C@H](N)C(=O)N[C@H]1CSSC[C@@H](C(=O)NCC(=O)NCC(=O)NCC(=O)N[C@@H](CO)C(=O)O)NC(=O)[C@H](CO)NC(=O)[C@H](Cc2c[nH]cn2)NC(=O)[C@H](CC(N)=O)NC(=O)[C@H](CC(N)=O)NC(=O)[C@H](CCCCN)NC(=O)[C@@H]2CCCN2C(=O)[C@H](CCCNC(=N)N)NC1=O", "note": "[MTP10]", "values": [{"measurement": "SPR binding behaviour (in words)", "setting": "MRP-14 [1]", "result": "did not really associate with MRP-14"}, {"measurement": "phage binding to MRP-14 (in words)", "setting": "MRP-14 [3]", "result": "one of the best peptides"}]}, {"molecule": "MDPHAHNGGGS [Scrambled, reference compound]", "values": [{"measurement": "Kd (dissociation constant from SPR measurements with MRP-14)", "setting": "MRP-14 [1]; saturation binding curve fit of equilibrium response, peptides 6.25 μM to 100 μM, NTA chip", "result": "no"}, {"measurement": "SPR binding behaviour (in words)", "setting": "MRP-14 [1]", "result": "low non-specific binding"}]}, {"molecule": "TMV-MTP6: MTP6-N3 attached to the exterior of tobacco mosaic virus by CuAAC, approximately 400 MTP6 per particle; sCy5-labeled for imaging (conjugate) peptide: ACNSVHQHHCGGGS SYSITTPSQFVFLSSAWADPIELINLCTNALGNQFQTQQARTVVQRQFSEVWKPSPQVTVRFPDSDFKVYRYNAVLDPLVTALLGAFDTRNRIIEVENQANPTTAETLDATRRVDDATVAIRSAINNLIVELIRGTGSYNRSSFESSSGLVWTSGPAT", "values": [{"measurement": "Kd", "setting": "MRP-14 [1]; kinetic curve fitting instead of equilibrium fit, read-out: Kd (dissociation constant from SPR measurements with MRP-14), kinetic fit", "result": 0.754, "unit": "µM"}, {"measurement": "ka (association rate)", "setting": "MRP-14 [1]; [6]", "result": 909.6, "unit": "M⁻¹ s⁻¹"}, {"measurement": "kd (dissociation rate)", "setting": "MRP-14 [1]; [6]", "result": 0.0006858, "unit": "s⁻¹"}, {"measurement": "aggregation of particles in blood", "setting": "[2]; ex vivo flow model", "result": "no aggregation observed"}, {"measurement": "effect on shear-induced thrombus formation", "setting": "[2]", "result": "some delay in thrombus onset; also recorded: no stimulation of thrombosis; also recorded: no significant effect on thrombosis"}, {"measurement": "targeting of thrombi (fluorescence signal in injured artery)", "setting": "[4]", "result": "some success with imaging thrombi; also recorded: targeting was observed; also recorded: targeted TMV-MTP6 attachment to the thrombi and no nonspecific accumulation in the contralateral, uninjured artery"}, {"measurement": "biodistribution / route of clearance", "setting": "[5]", "result": "clearance predominantly through the liver"}]}]}
